The target in one experiment is T1, FUCA2 (Homo sapiens, UniProt Q9BTY2).
T1 construct: expressed in transfected cells; host or cells: COS-7
T1 sequence (Q9BTY2 29-467): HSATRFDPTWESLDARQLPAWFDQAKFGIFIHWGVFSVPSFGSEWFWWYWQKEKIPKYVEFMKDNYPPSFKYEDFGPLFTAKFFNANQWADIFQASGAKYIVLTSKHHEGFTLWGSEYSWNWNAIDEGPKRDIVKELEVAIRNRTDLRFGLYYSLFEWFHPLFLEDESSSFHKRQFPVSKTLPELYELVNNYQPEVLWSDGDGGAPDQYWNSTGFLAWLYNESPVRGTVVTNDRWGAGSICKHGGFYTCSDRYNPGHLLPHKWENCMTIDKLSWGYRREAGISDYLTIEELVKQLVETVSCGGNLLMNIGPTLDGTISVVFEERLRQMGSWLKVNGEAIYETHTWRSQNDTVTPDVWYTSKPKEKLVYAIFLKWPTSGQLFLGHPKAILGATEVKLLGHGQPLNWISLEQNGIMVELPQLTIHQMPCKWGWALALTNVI
Description: In vitro ABP labeling of FUCA2 overexpressed in COS cells. The format is binding. The text has this: Subsequently, we exposed lysates of spleens from a healthy human individual and a patient suffering from Gaucher disease to ABP 1.
The coding sequences of H. sapiens FUCA1 (NCBI reference sequence XM_005245821.1, using forward primer 5′-[…]-3′ and reverse primer 5′-[…]-3′), and of H. sapiens FUCA2 (NCBI reference sequence NM_032020.4, using forward primer 5′-[…] […]-3′ and reverse primer 5′-[…] […]-3′) were amplified via PCR and cloned into pDNOR-221 and thereafter sub-cloned in pcDNA™-DEST40 vector using the Gateway system (Invitrogen). Correctness of all constructs was verified by sequencing. Confluent COS-7 cells were transfected with pcDNA3.1 empty vector (Mock) or the vector with described insert in conjunction with FuGENE (Roche).
All pre-incubations and ABP labeling-reactions occurred for 30 min at 37 °C. Total lysates (50 μg), medium (500 μg) or purified protein preparations (5 μg) were labeled with 1 μM JJB256 1 or JJB244 2, dissolved in 150 mM McIlvaine buffer, pH 4.5, incubating for 30 min at 37 °C. […] Wet slab-gels were scanned on fluorescence using a Typhoon Variable Mode Imager (Amersham Biosciences) using λEX 488 nm and λEM 520 nm (band pass filter 40 nm) for green fluorescent JJB256 1 and λEX 532 nm and λEM 610 nM (band pass filter 30 nm) for red fluorescent JJB244 2 and JJB75.

The next experiment addresses T2, FUCA1 (Homo sapiens, UniProt P04066).
T2 sequence (P04066 32-466): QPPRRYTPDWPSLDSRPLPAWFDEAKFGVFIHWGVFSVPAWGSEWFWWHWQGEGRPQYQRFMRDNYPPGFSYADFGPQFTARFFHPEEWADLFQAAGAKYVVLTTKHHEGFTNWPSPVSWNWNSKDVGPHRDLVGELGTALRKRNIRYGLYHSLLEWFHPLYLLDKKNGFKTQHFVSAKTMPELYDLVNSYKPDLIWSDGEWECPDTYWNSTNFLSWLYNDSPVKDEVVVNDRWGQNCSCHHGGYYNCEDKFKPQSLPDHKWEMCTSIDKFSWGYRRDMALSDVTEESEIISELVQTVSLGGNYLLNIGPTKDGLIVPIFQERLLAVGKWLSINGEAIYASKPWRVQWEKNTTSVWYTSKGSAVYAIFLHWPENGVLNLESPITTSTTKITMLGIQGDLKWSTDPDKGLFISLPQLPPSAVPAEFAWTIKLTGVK
The experiment in a line: Fluorescent labeling kinetics, time course on SDS-PAGE. Conditions: 10 nM probe, stoichiometric rhFUCA1, 4 °C. Details: expressed in transfected cells; host or cells: COS-7. The class given is binding. An excerpt: This rapid reaction with both 1 and 2 also precluded a classic determination of kinetic constants following a time-dependent decrease in detectable 4-methylumbelliferone (ESI Fig. S5b ^†).
Fig. S4. In vitro pH profile of recombinant FUCA1. A) In vitro labeling of COS-7 cell lysate containing over-expressed human FUCA1 at various pH with ABP 1. B) Relative in vitro labeling of FUCA1 with ABP 1 (closed squares) compared to relative enzymatic activity towards artificial 4-methylumbelliferyl-α-L-fucopyranoside substrate (open circles) at various pH. Data average of n = 3 experiments, ± standard deviation.
Fig. S5. In vitro inhibition kinetics of ABPs 1 and 2 towards recombinant human FUCA1. A) Stoichiometric in situ labeling of COS-7 lysate containing over-expressed human FUCA1 with 10 nM ABP 1 at 4°C and 37°C. B) Plots of Kobserved against the concentration of ABP 1 and 2. Rates determined through direct kinetic measurements of liberated 4-methylumbelliferone from 4-methylumbelliferyl-α-L-fucopyranoside substrate whilst in the presence of varying concentrations of ABP 1 and 2. […]

One compound from paper PMC5654414, “In vitro and in vivo comparative and competitive activity-based protein profiling of GH29 α-L-fucosidases” (Chemical Science, 2015) can be followed below.

SMILES strings stand for the structures.

On to `CC1=CC(C)=[N+]2C1=C(CCCCc1cn(CCCCCCCC(=O)N3[C@@H]4[C@@H](C)[C@@H](O)[C@@H](O)[C@H](O)[C@@H]43)nn1)c1c(C)cc(C)n1[B-]2(F)F` [compound 1], for which the labeling of enzyme result on FUCA2 is “labeled”. Also, the “completeness of labeling over time” value at FUCA1 is recorded as “near complete within the first minute”.
